Measured values reported in patent publication US10047051B2, “Substituted pyridines and method of use” (AbbVie S.á{acute over (.)}r.l., priority 2015, dated 2018).
pEC50: −log10 of the molar value.

Columns and labels:
Type in all cases: cell-based
CFTR ΔF508 mutant = target: T1, CFTR ΔF508 mutant (Homo sapiens, UniProt P13569, DEL508-508); assay: YFP-halide influx assay for the CFTR-ΔF508 mutation (CFBE41o- cells); conditions: forskolin 10.67 μM; for pEC50: from (1−F/F0) vs concentration plot
T1 construct: expressed in transfected cells; host or cells: CFBE41o- cells, adenoviral transduction
T1 sequence (P13569 with tags, fused parts or gaps DEL508-508): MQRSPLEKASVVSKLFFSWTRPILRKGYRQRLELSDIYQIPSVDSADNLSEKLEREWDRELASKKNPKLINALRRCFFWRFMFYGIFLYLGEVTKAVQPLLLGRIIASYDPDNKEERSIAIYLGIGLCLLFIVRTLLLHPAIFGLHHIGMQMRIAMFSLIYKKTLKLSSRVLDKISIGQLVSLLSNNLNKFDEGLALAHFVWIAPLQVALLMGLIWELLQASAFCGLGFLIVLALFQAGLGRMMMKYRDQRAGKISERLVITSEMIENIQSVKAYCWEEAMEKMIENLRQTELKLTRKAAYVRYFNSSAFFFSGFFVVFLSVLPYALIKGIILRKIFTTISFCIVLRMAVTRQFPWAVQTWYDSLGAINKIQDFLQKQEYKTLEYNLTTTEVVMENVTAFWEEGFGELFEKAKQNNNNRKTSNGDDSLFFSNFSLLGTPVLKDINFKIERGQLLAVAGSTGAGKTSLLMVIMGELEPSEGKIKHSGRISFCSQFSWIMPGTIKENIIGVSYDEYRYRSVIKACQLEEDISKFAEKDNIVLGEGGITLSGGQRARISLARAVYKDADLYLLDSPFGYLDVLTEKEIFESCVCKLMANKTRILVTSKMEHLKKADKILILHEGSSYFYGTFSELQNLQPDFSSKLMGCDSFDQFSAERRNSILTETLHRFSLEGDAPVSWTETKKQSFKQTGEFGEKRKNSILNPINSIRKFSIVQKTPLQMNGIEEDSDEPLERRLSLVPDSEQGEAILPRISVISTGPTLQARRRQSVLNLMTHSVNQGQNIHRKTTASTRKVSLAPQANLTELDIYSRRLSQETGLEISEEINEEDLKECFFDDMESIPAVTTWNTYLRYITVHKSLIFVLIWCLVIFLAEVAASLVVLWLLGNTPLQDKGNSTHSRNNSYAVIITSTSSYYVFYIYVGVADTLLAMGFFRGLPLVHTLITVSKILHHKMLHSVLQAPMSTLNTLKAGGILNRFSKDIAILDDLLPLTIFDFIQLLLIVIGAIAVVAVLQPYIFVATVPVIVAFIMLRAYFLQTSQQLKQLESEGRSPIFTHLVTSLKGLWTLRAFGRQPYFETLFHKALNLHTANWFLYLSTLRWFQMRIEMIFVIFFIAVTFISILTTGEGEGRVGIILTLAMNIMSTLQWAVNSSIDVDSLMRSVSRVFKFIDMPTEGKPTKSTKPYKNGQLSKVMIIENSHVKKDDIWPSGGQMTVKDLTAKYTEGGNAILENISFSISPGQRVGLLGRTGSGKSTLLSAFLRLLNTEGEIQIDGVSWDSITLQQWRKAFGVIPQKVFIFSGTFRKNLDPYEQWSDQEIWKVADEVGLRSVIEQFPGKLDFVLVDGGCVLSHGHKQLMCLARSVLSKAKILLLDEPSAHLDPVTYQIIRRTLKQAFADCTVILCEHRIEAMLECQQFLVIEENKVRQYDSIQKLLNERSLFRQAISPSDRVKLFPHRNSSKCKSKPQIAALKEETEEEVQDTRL
Procedure, shortened: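 EC50 derived from plotting 1−F/F0 (fluorescence 36 s after iodide injection over pre-injection value) against compound concentration. Cells: CFBE41o- transduced with ΔF508-CFTR and YFP quench reporter, corrected 24 h at 27° C or by a CFTR modulator at 37° C.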

CFTR G551D mutant = target: T2, CFTR G551D mutant (Homo sapiens, UniProt P13569, G551D); assay: YFP-halide influx assay for the CFTR-G551D mutation (HEK293 cells); conditions: forskolin 10.67 μM
T2 construct: expressed in transfected cells; host or cells: HEK293 cells, reverse transfection with plasmids
T2 sequence (P13569 whole entry G551D): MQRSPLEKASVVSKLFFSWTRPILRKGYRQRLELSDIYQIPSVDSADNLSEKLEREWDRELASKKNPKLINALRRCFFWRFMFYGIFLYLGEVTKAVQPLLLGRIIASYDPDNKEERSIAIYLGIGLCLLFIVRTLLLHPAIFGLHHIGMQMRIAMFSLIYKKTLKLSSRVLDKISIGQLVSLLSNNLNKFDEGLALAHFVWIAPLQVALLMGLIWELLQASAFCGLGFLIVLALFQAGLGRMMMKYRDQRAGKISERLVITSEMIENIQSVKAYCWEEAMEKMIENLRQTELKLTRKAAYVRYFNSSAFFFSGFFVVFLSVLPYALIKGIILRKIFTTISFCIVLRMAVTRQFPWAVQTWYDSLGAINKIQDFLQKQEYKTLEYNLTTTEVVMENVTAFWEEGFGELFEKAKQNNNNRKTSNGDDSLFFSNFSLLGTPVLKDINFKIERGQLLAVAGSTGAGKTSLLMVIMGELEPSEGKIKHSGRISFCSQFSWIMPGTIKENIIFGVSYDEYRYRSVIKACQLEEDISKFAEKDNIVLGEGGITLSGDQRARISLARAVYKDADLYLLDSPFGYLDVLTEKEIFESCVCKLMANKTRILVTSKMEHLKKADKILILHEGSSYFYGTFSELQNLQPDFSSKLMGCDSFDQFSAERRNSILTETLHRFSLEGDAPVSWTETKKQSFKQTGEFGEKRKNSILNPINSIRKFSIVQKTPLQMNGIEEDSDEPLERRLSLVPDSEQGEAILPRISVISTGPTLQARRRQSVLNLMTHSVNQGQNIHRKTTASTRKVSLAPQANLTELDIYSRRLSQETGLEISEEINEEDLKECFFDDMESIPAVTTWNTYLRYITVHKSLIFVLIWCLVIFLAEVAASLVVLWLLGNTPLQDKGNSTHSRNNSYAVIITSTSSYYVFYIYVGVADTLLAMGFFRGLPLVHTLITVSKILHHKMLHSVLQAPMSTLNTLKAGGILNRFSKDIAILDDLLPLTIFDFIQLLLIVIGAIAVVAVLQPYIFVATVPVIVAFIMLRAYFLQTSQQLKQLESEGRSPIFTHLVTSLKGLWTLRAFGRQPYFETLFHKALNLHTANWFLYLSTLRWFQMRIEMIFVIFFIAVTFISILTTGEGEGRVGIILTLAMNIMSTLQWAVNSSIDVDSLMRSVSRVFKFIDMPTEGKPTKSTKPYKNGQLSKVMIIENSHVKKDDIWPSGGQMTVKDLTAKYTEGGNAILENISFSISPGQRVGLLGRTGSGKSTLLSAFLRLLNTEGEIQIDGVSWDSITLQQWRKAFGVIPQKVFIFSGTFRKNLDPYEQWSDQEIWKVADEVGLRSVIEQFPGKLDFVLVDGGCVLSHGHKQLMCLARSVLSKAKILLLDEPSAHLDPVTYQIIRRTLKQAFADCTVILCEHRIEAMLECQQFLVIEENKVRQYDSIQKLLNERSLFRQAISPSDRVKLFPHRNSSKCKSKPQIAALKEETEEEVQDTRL
Procedure, shortened: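 Channel opening read as I⁻-driven quenching of a YFP H148Q/I152L/F47L reporter over 7 s post-injection, expressed as 1−F/F0 and fitted against concentration for EC50. Cells were HEK293 co-transfected at seeding with G551D CFTR plus reporter, then grown 24 h at 37 °C, 5% CO2.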

CFTR-R117H = target: T3, CFTR-R117H (Homo sapiens, UniProt P13569, R117H); assay: YFP-halide influx assay for the CFTR-R117H
T3 construct: expressed in transfected cells
T3 sequence (P13569 whole entry R117H): as the sequence (P13569 whole entry G551D) above, with R117H, D551G counted along it
Description: (§1) The YFP halide influx assay measured the functionality of the cystic fibrosis Transmembrane Conductance regulator (CFTR) channels. The assay was used to evaluate the capacity of compounds to increase the channel opening of existing mutant CFTR channels in the membrane. It makes use of the observation that the yellow fluorescent protein (YFP) variant YFP H148Q, I152L, F47L has its fluorescence substantially quenched by halide ions like Cl^− and I^− (Galietta, L. J. V., Haggie, P. M., Verkman, A. S., 2001. Green fluorescent protein-based halide indicators with improved chloride and iodide affinities. FEBS Lett. 499, 220-224. doi:10.1016/S0014-5793(01)02561-3).
(§2) For this purpose, HEK293-cells were seeded in 96 well plates. During seeding, the cells were reverse-transfected with plasmid vectors that direct the expression of the CFTR G551D mutant and of the YFP reporter. Cells were incubated at 37° C., 5% CO2 for 24 hours so as to allow for sufficient expression of the CFTR protein.
(§3) The I^−-induced quenching of fluorescence was recorded immediately after injection of I^− for 7 seconds. The capacity of a compound to increase the channel opening was directly correlated with the decrease in fluorescence, and was expressed as (1−(fluorescence after 7 seconds (F)/fluorescence before injection (F0))) and an EC50 was derived from a (1−F/F0) vs compound concentration plot.
(§4) Similar YHA assays were developed for other channel gating defective or channel conductance defective CFTR mutants to determine effect of compound on channel activity. Examples of mutants are G178R, G1349D, S549N, R117H, R334W. This assay is also used for additional class I CFTR mutants, including G542X, W1282X; class II mutants including N1303K, and for class III mutants including S1251N; or wild-type CFTR.

CFTR-G1349D = target: T4, CFTR-G1349D (Homo sapiens, UniProt P13569, G1349D); assay: YFP-halide influx assay for the CFTR-G1349D
T4 construct: expressed in transfected cells
T4 sequence (P13569 whole entry G1349D): as the sequence (P13569 whole entry G551D) above, with D551G, G1349D counted along it
Description: as §1, §2, §3, §4

For `Nc1cc(S(=O)(=O)c2ccc(C(F)(F)F)cc2)cnc1C(=O)N1CC(F)(F)C1` [Compound 103, (3-amino-5-{[4-(trifluoromethyl)phenyl]sulfonyl}pyridin-2-yl)(3,3-difluoroazetidin-1-yl)methanone], the “% Activation” value (CFTR ΔF508 mutant) was 110.0%, the pEC50 (CFTR ΔF508 mutant) was 7.58 and the “% Activation” value (CFTR G551D mutant) was 52.6%. The pEC50 (CFTR G551D mutant) was 6.43, the “% Activation” value (CFTR-R117H) was 87.8% and the pEC50 (CFTR-R117H) was 6.45. For the same compound, the “% Activation” value (CFTR-G1349D) was 67.7% and the pEC50 (CFTR-G1349D) was 6.35.
In the case of `COCC1(C)CN(C(=O)c2ncc(S(=O)(=O)c3ccc(OC(F)(F)F)cc3)cc2N)C1` [Compound 154, (3-amino-5-{[4-(trifluoromethoxy)phenyl]sulfonyl}pyridin-2-yl)[3-(methoxymethyl)-3-methylazetidin-1-yl]methanone], the “% Activation” value (CFTR ΔF508 mutant) was 98.1%, the pEC50 (CFTR ΔF508 mutant) was 7.18 and the “% Activation” value (CFTR G551D mutant) was 81.9%. The pEC50 (CFTR G551D mutant) was 6.06, the “% Activation” value (CFTR-R117H) was 107.0% and the pEC50 (CFTR-R117H) was 6.30. The “% Activation” value (CFTR-G1349D) was 97.6% and the pEC50 (CFTR-G1349D) was 6.20.
For `Nc1cc(S(=O)(=O)c2ccc(OC(F)(F)F)cc2)cnc1C(=O)N1CC(OCC(F)F)C1` [Compound 119, (3-amino-5-{[4-(trifluoromethoxy)phenyl]sulfonyl}pyridin-2-yl)[3-(2,2-difluoroethoxy)azetidin-1-yl]methanone], the “% Activation” value (CFTR ΔF508 mutant) was 101.0%, the pEC50 (CFTR ΔF508 mutant) was 7.47 and the “% Activation” value (CFTR G551D mutant) was 64.6%. The pEC50 (CFTR G551D mutant) was 6.26, the “% Activation” value (CFTR-R117H) was 89.9% and the pEC50 (CFTR-R117H) was 6.51. The “% Activation” value (CFTR-G1349D) was 84.8% and the pEC50 (CFTR-G1349D) was 6.49.
For `CC1(O)CN(C(=O)c2ncc(S(=O)(=O)c3ccc(C(F)(F)F)cc3)cc2N)C1` [Compound 91, (3-amino-5-{[4-(trifluoromethyl)phenyl]sulfonyl}pyridin-2-yl) (3-hydroxy-3-methylazetidin-1-yl)methanone], the “% Activation” value (CFTR ΔF508 mutant) was 97.2%, the pEC50 (CFTR ΔF508 mutant) was 7.94 and the “% Activation” value (CFTR G551D mutant) was 56.1%. The pEC50 (CFTR G551D mutant) was 6.09, the “% Activation” value (CFTR-R117H) was 89.6% and the pEC50 (CFTR-R117H) was 6.49. For the same compound, the “% Activation” value (CFTR-G1349D) was 76.6% and the pEC50 (CFTR-G1349D) was 6.13.
With `CC(C)NC(=O)CNC(=O)c1ncc(S(=O)(=O)c2ccc(OC(F)(F)F)cc2)cc1N` [Compound 57, 3-amino-N-[2-oxo-2-(propan-2-ylamino)ethyl]-5-{[4-(trifluoromethoxy)phenyl]sulfonyl}pyridine-2-carboxamide] the “% Activation” value (CFTR ΔF508 mutant) was 93.1%, the pEC50 (CFTR ΔF508 mutant) was 8.15 and the “% Activation” value (CFTR G551D mutant) was 51.8%. The pEC50 (CFTR G551D mutant) was 6.41, the “% Activation” value (CFTR-R117H) was 72.8% and the pEC50 (CFTR-R117H) was 6.45. For the same compound, the “% Activation” value (CFTR-G1349D) was 59.6% and the pEC50 (CFTR-G1349D) was 6.34.
`CCOCC1(CNC(=O)c2ncc(S(=O)(=O)c3ccc(OC(F)(F)F)cc3)cc2N)CCC1` [Compound 118, 3-amino-N-{[1-(ethoxymethyl)cyclobutyl]methyl}-5-{[4-(trifluoromethoxy)phenyl]sulfonyl}pyridine-2-carboxamide] was tested, and the “% Activation” value (CFTR ΔF508 mutant) was 93.2%, the pEC50 (CFTR ΔF508 mutant) was 6.68 and the “% Activation” value (CFTR G551D mutant) was 49.5%. The pEC50 (CFTR G551D mutant) was 6.38, the “% Activation” value (CFTR-R117H) was 90.7% and the pEC50 (CFTR-R117H) was 6.21. For the same compound, the “% Activation” value (CFTR-G1349D) was 99.5% and the pEC50 (CFTR-G1349D) was 6.11.
In the case of `CC(C)C1(O)CN(C(=O)c2ncc(S(=O)(=O)c3ccc(C(F)(F)F)cc3)cc2N)C1` [Compound 159, (3-amino-5-{[4-(trifluoromethyl)phenyl]sulfonyl}pyridin-2-yl)[3-hydroxy-3-(propan-2-yl)azetidin-1-yl]methanone], the “% Activation” value (CFTR ΔF508 mutant) was 111.1%, the pEC50 (CFTR ΔF508 mutant) was 8.36 and the “% Activation” value (CFTR G551D mutant) was 46.6%. It also gave a pEC50 (CFTR G551D mutant) of 6.62.
For `Nc1cc(S(=O)(=O)c2ccc(OC(F)(F)F)cc2)cnc1C(=O)N1CC[C@H](F)C1` [Compound 206, (3-amino-5-{[4-(trifluoromethoxy)phenyl]sulfonyl}pyridin-2-yl)[(3S)-3-fluoropyrrolidin-1-yl]methanone], the “% Activation” value (CFTR ΔF508 mutant) was 103.0%, the pEC50 (CFTR ΔF508 mutant) was 7.13 and the “% Activation” value (CFTR G551D mutant) was 90.3%. It also gave a pEC50 (CFTR G551D mutant) of 5.50.
`Nc1cc(S(=O)(=O)c2ccc(C(F)(F)F)cc2)cnc1C(=O)N1CC2(CCCOC2)C1` [Compound 295, (3-amino-5-{[4-(trifluoromethyl)phenyl]sulfonyl}pyridin-2-yl)(6-oxa-2-azaspiro[3.5]non-2-yl)methanone] was tested, and the “% Activation” value (CFTR ΔF508 mutant) was 102.3%, the pEC50 (CFTR ΔF508 mutant) was 7.29 and the “% Activation” value (CFTR G551D mutant) was 92.7%. The pEC50 (CFTR G551D mutant) was 5.71.
`Nc1cc(S(=O)(=O)c2ccc(OC(F)(F)F)cc2F)cnc1C(=O)N1CC(O)(C(F)(F)F)C1` [Compound 173, (3-amino-5-{[2-fluoro-4-(trifluoromethoxy)phenyl]sulfonyl}pyridin-2-yl)[3-hydroxy-3-(trifluoromethyl)azetidin-1-yl]methanone] was tested, and the “% Activation” value (CFTR ΔF508 mutant) was 98.3%, the pEC50 (CFTR ΔF508 mutant) was 8.59 and the “% Activation” value (CFTR G551D mutant) was 47.6%. For the same compound, the pEC50 (CFTR G551D mutant) was 6.74.
For `CC(C)(O)CNC(=O)c1ncc(S(=O)(=O)c2ccc(F)cc2)cc1N` [Compound 10, 3-amino-5-[(4-fluorophenyl)sulfonyl]-N-(2-hydroxy-2-methylpropyl)pyridine-2-carboxamide], the “% Activation” value (CFTR ΔF508 mutant) was 106.4%, the pEC50 (CFTR ΔF508 mutant) was 6.83 and the “% Activation” value (CFTR G551D mutant) was 52.2%. The pEC50 (CFTR G551D mutant) was less than 5.48.
For `C[C@H](O)CCNC(=O)c1ncc(S(=O)(=O)c2ccc(OC(F)(F)F)cc2)cc1N` [Compound 53, 3-amino-N-[(3S)-3-hydroxybutyl]-5-{[4-(trifluoromethoxy)phenyl]sulfonyl}pyridine-2-carboxamide], the “% Activation” value (CFTR ΔF508 mutant) was 95.6%, the pEC50 (CFTR ΔF508 mutant) was 7.38 and the “% Activation” value (CFTR G551D mutant) was 54.0%. The pEC50 (CFTR G551D mutant) was 5.74.
With `Nc1cc(S(=O)(=O)N2CCOc3ccccc32)cnc1C(=O)NCC(O)C(F)(F)F` (stereo not shown) [Compound 109, 3-amino-5-(2,3-dihydro-4H-1,4-benzoxazin-4-ylsulfonyl)-N-(3,3,3-trifluoro-2-hydroxypropyl)pyridine-2-carboxamide] the “% Activation” value (CFTR ΔF508 mutant) was 104.0%, the pEC50 (CFTR ΔF508 mutant) was 8.44 and the “% Activation” value (CFTR G551D mutant) was 62.6%. The pEC50 (CFTR G551D mutant) was 6.53.
For `COCCS(=O)(=O)c1cc(N)c(C(=O)NC[C@H](C)O)nc1-c1ccc(F)cc1` [Compound 265, 3-amino-6-(4-fluorophenyl)-N-[(2S)-2-hydroxypropyl]-5-[(2-methoxyethyl)sulfonyl]pyridine-2-carboxamide], the “% Activation” value (CFTR ΔF508 mutant) was 92.4%, the pEC50 (CFTR ΔF508 mutant) was 6.85 and the “% Activation” value (CFTR G551D mutant) was 11.24%. For the same compound, the pEC50 (CFTR G551D mutant) was 5.70.
`C[C@H]1CCCN1S(=O)(=O)c1cnc(C(=O)NCC(O)C(F)(F)F)c(N)c1` (stereo partly drawn) [Compound 181, 3-amino-5-{[(2S)-2-methylpyrrolidin-1-yl]sulfonyl}-N-(3,3,3-trifluoro-2-hydroxypropyl)pyridine-2-carboxamide] was tested, and the “% Activation” value (CFTR ΔF508 mutant) was 90.6%, the pEC50 (CFTR ΔF508 mutant) was 7.70 and the “% Activation” value (CFTR G551D mutant) was 61.4%. For the same compound, the pEC50 (CFTR G551D mutant) was 5.88.
In the case of `Nc1cc(S(=O)(=O)c2ccc(OC(F)(F)F)cc2)cnc1C(=O)NC1(C(F)(F)F)COC1` [Compound 214, 3-amino-5-{[4-(trifluoromethoxy)phenyl]sulfonyl}-N-[3-(trifluoromethyl)oxetan-3-yl]pyridine-2-carboxamide], the “% Activation” value (CFTR ΔF508 mutant) was 60.5%, the pEC50 (CFTR ΔF508 mutant) was less than 6.18 and the “% Activation” value (CFTR G551D mutant) was 39.1%. For the same compound, the pEC50 (CFTR G551D mutant) was less than 5.00.
In the case of `CC(C)(O)CNC(=O)c1ncc(S(=O)(=O)c2cccc(F)c2)cc1N` [Compound 39, 3-amino-5-[(3-fluorophenyl)sulfonyl]-N-(2-hydroxy-2-methylpropyl)pyridine-2-carboxamide], the “% Activation” value (CFTR ΔF508 mutant) was 42.5%, the pEC50 (CFTR ΔF508 mutant) was 6.81 and the “% Activation” value (CFTR G551D mutant) was 5.0%. The pEC50 (CFTR G551D mutant) was less than 5.00.
For `CN1CCC(O)(CNC(=O)c2ncc(S(=O)(=O)c3ccc(C(F)(F)F)cc3)cc2N)CC1` [Compound 230, 3-amino-N-[(4-hydroxy-1-methylpiperidin-4-yl)methyl]-5-{[4-(trifluoromethyl)phenyl]sulfonyl}pyridine-2-carboxamide], the “% Activation” value (CFTR ΔF508 mutant) was 12.4%, the pEC50 (CFTR ΔF508 mutant) was less than 5.70 and the “% Activation” value (CFTR G551D mutant) was 1.5%. It also gave a pEC50 (CFTR G551D mutant) of less than 5.00.
In the case of `Nc1cc(S(=O)(=O)c2ccc(OC(F)(F)F)cc2)cnc1C(=O)NCC1CC(F)(F)C1` [Compound 153, 3-amino-N-[(3,3-difluorocyclobutyl)methyl]-5-{[4-(trifluoromethoxy)phenyl]sulfonyl}pyridine-2-carboxamide], the “% Activation” value (CFTR ΔF508 mutant) was 105.0%, the pEC50 (CFTR ΔF508 mutant) was 7.12 and the “% Activation” value (CFTR G551D mutant) was 47.6%. It also gave a pEC50 (CFTR G551D mutant) of 6.12.
